Measurements as given in PubChem BioAssay (NCI).
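Cells were grown in 96-well plates and exposed to each compound for 48 hours at five concentrations; endpoints were interpolated linearly between bracketing concentrations, or set to the highest concentration if not reached. TGI: total growth inhibition.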

How the values were obtained:
Experiment in all cases: NCI tumour cell line growth inhibition, 48 h
ACHN renal = system: ACHN renal
HCT-116 colon = system: HCT-116 colon
HCT-15 colon = system: HCT-15 colon
HOP-18 NSCLC = system: HOP-18 NSCLC
HOP-62 NSCLC = system: HOP-62 NSCLC
M19-MEL melanoma = system: M19-MEL melanoma
NCI-H226 lung = system: NCI-H226 lung
NCI-H522 lung = system: NCI-H522 lung
SF-295 CNS = system: SF-295 CNS
SN12C renal = system: SN12C renal
SW-620 colon = system: SW-620 colon
UACC-62 melanoma = system: UACC-62 melanoma
XF 498 CNS = system: XF 498 CNS
HOP-92 NSCLC = system: HOP-92 NSCLC
KM12 colon = system: KM12 colon
SK-MEL-28 melanoma = system: SK-MEL-28 melanoma
DU-145 prostate = system: DU-145 prostate
MDA-MB-231 breast = system: MDA-MB-231 breast
NCI/ADR-RES ovarian = system: NCI/ADR-RES ovarian
P388 leukemia = system: P388 leukemia

## COc1cc(C2c3cc4c(cc3OC3(O)COC(=O)C23)OCO4)cc(OC)c1OC (stereo unspecified)
ACHN renal
  TGI: > 100 µM
HCT-116 colon
  TGI: > 100 µM
HCT-15 colon
  TGI: > 100 µM
HOP-18 NSCLC
  TGI: > 100 µM
HOP-62 NSCLC
  TGI: > 100 µM
M19-MEL melanoma
  TGI: > 100 µM
NCI-H226 lung
  TGI: > 100 µM
NCI-H522 lung
  TGI: 54.1 µM
SF-295 CNS
  TGI: 74.5 µM
SN12C renal
  TGI: > 100 µM
SW-620 colon
  TGI: > 100 µM
UACC-62 melanoma
  TGI: > 100 µM
XF 498 CNS
  TGI: 96.7 µM

## CC(=O)Nc1ccc(C2=N/C(=C\c3ccc(Cl)c(Cl)c3)C(=O)O2)cc1
ACHN renal
  TGI: > 100 µM
HCT-116 colon
  TGI: > 100 µM
HCT-15 colon
  TGI: > 100 µM
HOP-18 NSCLC
  TGI: > 100 µM
HOP-62 NSCLC
  TGI: > 100 µM
HOP-92 NSCLC
  TGI: > 100 µM
KM12 colon
  TGI: > 100 µM
M19-MEL melanoma
  TGI: > 100 µM
NCI-H226 lung
  TGI: > 100 µM
NCI-H522 lung
  TGI: > 100 µM
SF-295 CNS
  TGI: > 100 µM
SK-MEL-28 melanoma
  TGI: > 100 µM
SN12C renal
  TGI: > 100 µM
SW-620 colon
  TGI: > 100 µM
UACC-62 melanoma
  TGI: > 100 µM
XF 498 CNS
  TGI: > 100 µM

## COc1ccc2c(C)cc(N/N=C/c3sccc3C)nc2c1
ACHN renal
  TGI: > 100 µM
DU-145 prostate
  TGI: 23.3 µM
HCT-116 colon
  TGI: 16.1 µM
HCT-15 colon
  TGI: 20.3 µM
HOP-62 NSCLC
  TGI: 28.4 µM
HOP-92 NSCLC
  TGI: 47.5 µM
KM12 colon
  TGI: 21.8 µM
MDA-MB-231 breast
  TGI: 5.9 µM
NCI-H226 lung
  TGI: 25.9 µM
NCI-H522 lung
  TGI: 21.9 µM
NCI/ADR-RES ovarian
  TGI: 26.2 µM
SF-295 CNS
  TGI: 28.4 µM
SK-MEL-28 melanoma
  TGI: 35.8 µM
SN12C renal
  TGI: 20.4 µM
SW-620 colon
  TGI: 69.4 µM
UACC-62 melanoma
  TGI: 34.9 µM

## Nc1ccc2cc(S(=O)(=O)O)cc(O)c2c1N=Nc1ccc(NC(=O)Nc2ccc(N=Nc3c(N)ccc4cc(S(=O)(=O)O)cc(O)c34)c(S(=O)(=O)O)c2)cc1S(=O)(=O)O
HCT-116 colon
  TGI: > 100 µM
HCT-15 colon
  TGI: > 100 µM
HOP-18 NSCLC
  TGI: > 100 µM
HOP-62 NSCLC
  TGI: > 100 µM
HOP-92 NSCLC
  TGI: > 100 µM
KM12 colon
  TGI: > 100 µM
M19-MEL melanoma
  TGI: > 100 µM
NCI-H226 lung
  TGI: > 100 µM
NCI-H522 lung
  TGI: > 100 µM
NCI/ADR-RES ovarian
  TGI: > 100 µM
P388 leukemia
  TGI: > 100 µM
SF-295 CNS
  TGI: > 100 µM
SK-MEL-28 melanoma
  TGI: > 100 µM
SN12C renal
  TGI: > 100 µM
SW-620 colon
  TGI: > 100 µM
UACC-62 melanoma
  TGI: > 100 µM
XF 498 CNS
  TGI: > 100 µM

## CCCCC(NC(=O)CC)C(=O)O (stereo unspecified)
HCT-116 colon
  TGI: > 100 µM
HCT-15 colon
  TGI: > 100 µM
HOP-18 NSCLC
  TGI: > 100 µM
HOP-62 NSCLC
  TGI: > 100 µM
HOP-92 NSCLC
  TGI: > 100 µM
KM12 colon
  TGI: > 100 µM
M19-MEL melanoma
  TGI: > 100 µM
NCI-H226 lung
  TGI: > 100 µM
NCI-H522 lung
  TGI: > 100 µM
NCI/ADR-RES ovarian
  TGI: > 100 µM
P388 leukemia
  TGI: > 100 µM
SF-295 CNS
  TGI: > 100 µM
SK-MEL-28 melanoma
  TGI: > 100 µM
SN12C renal
  TGI: > 100 µM
SW-620 colon
  TGI: > 100 µM
UACC-62 melanoma
  TGI: > 100 µM
XF 498 CNS
  TGI: > 100 µM

## CN1C[C@H]2[C@@H](C1=O)[C@H](c1ccc([N+](=O)[O-])cc1)ON2C
ACHN renal
  TGI: > 100 µM
DU-145 prostate
  TGI: > 100 µM
HCT-116 colon
  TGI: > 100 µM
HCT-15 colon
  TGI: > 100 µM
HOP-62 NSCLC
  TGI: > 100 µM
HOP-92 NSCLC
  TGI: > 100 µM
MDA-MB-231 breast
  TGI: > 100 µM
NCI-H226 lung
  TGI: > 100 µM
NCI-H522 lung
  TGI: > 100 µM
NCI/ADR-RES ovarian
  TGI: > 100 µM
SF-295 CNS
  TGI: > 100 µM
SK-MEL-28 melanoma
  TGI: > 100 µM
SN12C renal
  TGI: > 100 µM
SW-620 colon
  TGI: > 100 µM

## COc1cc(C2C(Cl)C(=O)N2NC(=O)c2ccc(NC(C)=O)cc2)cc(Br)c1O (stereo unspecified)
ACHN renal
  TGI: > 100 µM
HCT-116 colon
  TGI: > 100 µM
HOP-18 NSCLC
  TGI: > 100 µM
HOP-62 NSCLC
  TGI: > 100 µM
HOP-92 NSCLC
  TGI: > 100 µM
KM12 colon
  TGI: > 100 µM
M19-MEL melanoma
  TGI: > 100 µM
NCI-H226 lung
  TGI: > 100 µM
NCI-H522 lung
  TGI: > 100 µM
SF-295 CNS
  TGI: > 100 µM
SK-MEL-28 melanoma
  TGI: > 100 µM
SW-620 colon
  TGI: > 100 µM
UACC-62 melanoma
  TGI: > 100 µM

## NC(=O)NC(CC(=O)O)C(=O)O (stereo unspecified)
ACHN renal
  TGI: > 100 µM
DU-145 prostate
  TGI: > 100 µM
HCT-116 colon
  TGI: > 100 µM
HCT-15 colon
  TGI: > 100 µM
HOP-62 NSCLC
  TGI: > 100 µM
HOP-92 NSCLC
  TGI: > 100 µM
KM12 colon
  TGI: > 100 µM
MDA-MB-231 breast
  TGI: > 100 µM
NCI-H226 lung
  TGI: > 100 µM
NCI-H522 lung
  TGI: > 100 µM
NCI/ADR-RES ovarian
  TGI: > 100 µM
SF-295 CNS
  TGI: > 100 µM
SK-MEL-28 melanoma
  TGI: > 100 µM
SN12C renal
  TGI: > 100 µM
SW-620 colon
  TGI: > 100 µM
UACC-62 melanoma
  TGI: > 100 µM

## CC1C(=O)C(C)C(c2cccs2)N(N=O)C1c1cccs1 (stereo unspecified)
HCT-116 colon
  TGI: > 100 µM
HCT-15 colon
  TGI: > 100 µM
HOP-62 NSCLC
  TGI: > 100 µM
HOP-92 NSCLC
  TGI: > 100 µM
KM12 colon
  TGI: > 100 µM
M19-MEL melanoma
  TGI: > 100 µM
NCI-H226 lung
  TGI: > 100 µM
NCI-H522 lung
  TGI: > 100 µM
NCI/ADR-RES ovarian
  TGI: > 100 µM
P388 leukemia
  TGI: > 100 µM
SF-295 CNS
  TGI: > 100 µM
SK-MEL-28 melanoma
  TGI: > 100 µM
SN12C renal
  TGI: > 100 µM
SW-620 colon
  TGI: > 100 µM
UACC-62 melanoma
  TGI: > 100 µM
XF 498 CNS
  TGI: > 100 µM

## O=C1ON(Cc2ccccc2)C(c2ccccc2)N1c1ccccc1 (stereo unspecified)
HCT-116 colon
  TGI: > 100 µM
HCT-15 colon
  TGI: > 100 µM
HOP-18 NSCLC
  TGI: > 100 µM
HOP-62 NSCLC
  TGI: > 100 µM
HOP-92 NSCLC
  TGI: > 100 µM
KM12 colon
  TGI: > 100 µM
M19-MEL melanoma
  TGI: > 100 µM
NCI-H226 lung
  TGI: > 100 µM
NCI-H522 lung
  TGI: > 100 µM
NCI/ADR-RES ovarian
  TGI: > 100 µM
P388 leukemia
  TGI: > 100 µM
SF-295 CNS
  TGI: > 100 µM
SK-MEL-28 melanoma
  TGI: > 100 µM
SN12C renal
  TGI: > 100 µM
SW-620 colon
  TGI: > 100 µM
UACC-62 melanoma
  TGI: > 100 µM
XF 498 CNS
  TGI: > 100 µM

## CN(C)CCCc1cccnc1
ACHN renal
  TGI: > 100 µM
DU-145 prostate
  TGI: > 100 µM
HCT-116 colon
  TGI: > 100 µM
HCT-15 colon
  TGI: > 100 µM
HOP-62 NSCLC
  TGI: > 100 µM
HOP-92 NSCLC
  TGI: > 100 µM
KM12 colon
  TGI: > 100 µM
MDA-MB-231 breast
  TGI: > 100 µM
NCI-H226 lung
  TGI: > 100 µM
NCI-H522 lung
  TGI: > 100 µM
NCI/ADR-RES ovarian
  TGI: > 100 µM
SF-295 CNS
  TGI: > 100 µM
SK-MEL-28 melanoma
  TGI: > 100 µM
SN12C renal
  TGI: > 100 µM
SW-620 colon
  TGI: > 100 µM
UACC-62 melanoma
  TGI: > 100 µM
